Source: publication PMC6236407 (Molecules : A Journal of Synthetic Chemistry and Natural …, 2001)

What was measured:
[1] = tested on: 5-HT1A serotonin receptor sites; conditions: background statement, no reference given; cited from earlier work
[2] = biological target: T1, 5-HT1A receptors (Rattus norvegicus, UniProt P19327); assay: Radioligand binding, displacement of [3H]-8-OH-DPAT in rat hippocampus
T1 sequence (P19327 1-422): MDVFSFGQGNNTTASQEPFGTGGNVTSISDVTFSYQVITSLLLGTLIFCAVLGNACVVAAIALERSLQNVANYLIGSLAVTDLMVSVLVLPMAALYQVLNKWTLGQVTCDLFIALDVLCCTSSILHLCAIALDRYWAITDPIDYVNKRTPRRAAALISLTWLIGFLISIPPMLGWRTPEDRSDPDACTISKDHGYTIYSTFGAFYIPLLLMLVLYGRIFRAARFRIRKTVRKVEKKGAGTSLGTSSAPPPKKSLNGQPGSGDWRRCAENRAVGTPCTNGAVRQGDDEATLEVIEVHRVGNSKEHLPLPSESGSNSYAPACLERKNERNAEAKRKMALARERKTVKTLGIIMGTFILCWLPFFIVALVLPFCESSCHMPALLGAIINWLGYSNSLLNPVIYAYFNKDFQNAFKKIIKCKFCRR

[3] = biological target: 5-HT2A receptors (Rattus norvegicus, UniProt P14842); assay: Radioligand binding, displacement of [3H]-ketanserin in rat cortex
Sequence of 5-HT2A receptors (P14842 whole entry): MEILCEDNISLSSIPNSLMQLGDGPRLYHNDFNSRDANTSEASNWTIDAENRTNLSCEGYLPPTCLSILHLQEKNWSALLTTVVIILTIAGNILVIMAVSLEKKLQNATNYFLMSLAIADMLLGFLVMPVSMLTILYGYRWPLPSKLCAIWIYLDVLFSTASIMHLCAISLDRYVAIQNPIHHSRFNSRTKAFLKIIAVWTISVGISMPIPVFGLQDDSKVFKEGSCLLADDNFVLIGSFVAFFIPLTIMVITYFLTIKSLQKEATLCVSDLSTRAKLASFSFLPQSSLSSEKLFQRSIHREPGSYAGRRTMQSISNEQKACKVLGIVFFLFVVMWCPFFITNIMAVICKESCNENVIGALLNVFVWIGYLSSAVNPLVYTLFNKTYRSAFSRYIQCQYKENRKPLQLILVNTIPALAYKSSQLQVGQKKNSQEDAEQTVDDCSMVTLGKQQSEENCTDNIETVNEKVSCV

Ki [2]	Ki [3]	Structure (SMILES)	binding to 5-HT1A serotonin receptor sites (in words) [1]
–	–	O=C1CC2(CCCC2)CC(=O)N1CCCCN1CCN(c2ncccn2)CC1 [Buspirone, {4-[4-(2-pyrimidinyl)-1-piperazinyl]butyl}-8-azaspiro[4.5]decane-7,9-dione]	high affinity and selectivity
119 ± 8 nM	309 ± 1 nM	O=c1c2ccccc2c(=O)n(-c2ccccc2)n1CCCCN1CCN(c2ccccc2)CC1 [Compound 8c, 3-[4-(4-phenyl-1-piperazinyl)butyl]-2-phenyl-2,3-dihydrophthalazine-1,4-dione]	–
19 ± 1 nM	409 ± 17 nM	O=c1ccc(=O)n(-c2ccccc2)n1CCCCN1CCN(c2ccccc2)CC1 [Compound 9c, 2-[4-(4-phenyl-1-piperazinyl)butyl]-1-phenyl-1,2-dihydropyridazine-3,6-dione]	–
–	–	CC1(C)CC(=O)N(CCCCN2CCN(c3ncccn3)CC2)C(=O)C1 [Gepirone]	high affinity and selectivity
–	–	O=C1c2ccccc2S(=O)(=O)N1CCCCN1CCN(c2ncccn2)CC1 [Ipsapirone]	high affinity and selectivity
